The source of these data is patent US20130281493A1, “Method for Treating Cancer Harboring a p53 Mutation” (The Trustees of The University of Columbia in the City of …, priority 2010, published 2013).

SMILES strings stand for the structures.

Series [1] can be described thus: Serum level at the dose used in the mouse experiments. The class given is in vivo. Conditions: mice, 200 mg/kg/day.
In series [2] the test system is MDA-231 cells. The experiment in a line: MDA-231 subcutaneous tumor growth in NOD-SCID mice. In kind it is in vivo. As to conditions: 200 mg/kg/day, after 21 days of treatment.
Protocol: 2×10^6 MDA-231 cells were injected subcutaneously into 8 week-old NOD-SCID mice. […] Tumor measurements were performed weekly using calipers. After 21 days of treatment, mice were sacrificed and tumors were extracted and weighed. Tumor volumes as a function of time (left) and tumor weights at day 21 (right) are presented. *denotes p<0.01, **denotes p<0.001 using a two-tailed students t-test. […] 2×10^6 MDA-231 cells were injected subcutaneously into 8 week-old NOD-SCID mice. […] Tumor measurements were performed weekly using calipers. After 21 days of treatment, mice were sacrificed and tumors were extracted and weighed. Tumor volumes as a function of time (left) and tumor weights at day 21 (right) are presented. *denotes p<0.01, **denotes p<0.001 using a two-tailed students t-test.
Another series has as its target farnesyltransferase (Homo sapiens, UniProt P49354+P49356). As to conditions: whole cells; Lerner et al., 1995; cited from earlier work.
Series [3] deals with MDA-231 cells. Put plainly: 3D culture of MDA-231 breast cancer cells (growth, invasive morphology). The class given is cell-based. The procedure:
(§1) Cells were then seeded at a density of 5,000 cells/well in Assay Medium (DMEM/F12+2% Horse Serum+10 μg/ml Insulin+0.5 μg/ml Hydrocortisone [+5 ng/ml EGF for MCF10A cultures]) containing 2% Matrigel.
(§2) Cells were fixed using 2% formaldehyde at room temperature for at least 30 min. […] Primary antibodies were incubated with the cultures for 1-2 hr at room temperature, followed by washing, and addition of fluorescently-conjugated secondary antibodies for 40 min at room temperature. Nuclei were counterstained with DRAQ5 (Cell Signaling #4084) or Propidium Iodide (Sigma #P4170). Confocal microscopy was conducted using an Olympus IX81 confocal microscope and analyzed using Fluoview software.
(§3) Cells were treated on Day 1 or Day 4 of the 3D protocol (as described in the figure legends) and refed every 4 days with fresh drug. […] This range approximates clinically achievable serum concentrations in human patients (Dimitroulakos et al., 1999; Wong et al., 2002), • 6-Fluoromevalonate (200 μM) as previously described (Cuthbert and Lipsky, 1990) and YM-53601, FTI-277 or GTI-2133 at or above their reported IC50 in cells (Lerner et al., 1995; Ugawa et al., 2000; Vasudevan et al., 1999), and with • Fatostatin at either 2 μM or 20 μM as previously described (Kamisuki et al., 2009).

Another series relates to squalene synthesis. Conditions: low micromolar concentrations; Lerner et al., 1995; cited from earlier work.
Series [4] addresses geranylgeranyl transferase (Homo sapiens, UniProt P49354+P53609). Conditions: low micromolar concentrations; Lerner et al., 1995; cited from earlier work.
Another series deals with MDA-468.shp53 cells. The experiment in a line: Add-back in 3D culture of MDA-468.shp53 cells depleted of mutant p53 (+DOX). In kind it is cell-based. As to conditions: MVA and MVAP added together, 1 mM each, from Day 1, 8 days.
Another series has as its system MCF10A cells. The experiment in a line: 3D culture of non-malignant MCF10A mammary epithelial cells (acinar morphology, luminal clearance). In kind it is cell-based, human. Conditions: 1 mM, 8 days. The procedure:
Cells were fixed using 2% formaldehyde at room temperature for at least 30 min. […] Primary antibodies were incubated with the cultures for 1-2 hr at room temperature, followed by washing, and addition of fluorescently-conjugated secondary antibodies for 40 min at room temperature. Nuclei were counterstained with DRAQ5 (Cell Signaling #4084) or Propidium Iodide (Sigma #P4170). Confocal microscopy was conducted using an Olympus IX81 confocal microscope and analyzed using Fluoview software. Cells were treated on Day 1 or Day 4 of the 3D protocol (as described in the figure legends) and refed every 4 days with fresh drug. […] This range approximates clinically achievable serum concentrations in human patients (Dimitroulakos et al., 1999; Wong et al., 2002), • 6-Fluoromevalonate (200 μM) as previously described (Cuthbert and Lipsky, 1990) and YM-53601, FTI-277 or GTI-2133 at or above their reported IC50 in cells (Lerner et al., 1995; Ugawa et al., 2000; Vasudevan et al., 1999), and with • Fatostatin at either 2 μM or 20 μM as previously described (Kamisuki et al., 2009).

The next series has as its system MDA-468 cells. Put plainly: 3D culture of MDA-468 breast cancer cells (growth, morphology). In kind it is cell-based. How it is done:
as §1, §2, §3

In a further series the target is T1, squalene synthase (Homo sapiens, UniProt P37268).
T1 sequence (P37268 1-417): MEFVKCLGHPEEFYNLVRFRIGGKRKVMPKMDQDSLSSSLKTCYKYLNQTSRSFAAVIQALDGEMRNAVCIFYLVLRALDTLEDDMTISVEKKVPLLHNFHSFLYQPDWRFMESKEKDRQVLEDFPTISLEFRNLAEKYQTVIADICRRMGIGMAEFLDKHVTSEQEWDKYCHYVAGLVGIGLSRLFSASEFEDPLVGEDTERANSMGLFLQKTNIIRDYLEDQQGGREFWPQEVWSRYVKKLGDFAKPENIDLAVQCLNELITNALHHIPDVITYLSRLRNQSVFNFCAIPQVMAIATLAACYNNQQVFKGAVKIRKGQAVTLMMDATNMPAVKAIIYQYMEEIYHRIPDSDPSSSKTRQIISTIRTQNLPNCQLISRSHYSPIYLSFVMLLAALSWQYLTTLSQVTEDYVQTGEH
Conditions: Ugawa et al., 2000; cited from earlier work.

Another series has as its system MDA-231.shp53 cells. Conditions: 25 μM from Day 1, 8 days, +DOX.

Protocol for MDA-231.shp53 cells: (§4) Three-dimensional culture was carried out as previously described (Debnath et al., 2003). Briefly, 8-well chamber slides were lined with 50 μl growth factor reduced Matrigel (BD Biosciences). […] Cells were refed with Assay Medium containing 2% Matrigel every 4 days. For RNA/protein analysis from 3D cultures, 35 mm plates were lined with 500 μl Matrigel and cells were seeded at a density of 225,000 cells/plate in Assay Medium+2% Matrigel. Cells were harvested using Cell Recovery Solution (BD Biosciences) according to the manufacturer's instructions.
Protocol for MDA-468.shp53 cells: as §4

Take `CCC(C)(C)C(=O)O[C@H]1C[C@@H](C)C=C2C=C[C@H](C)[C@H](CC[C@@H]3C[C@@H](O)CC(=O)O3)[C@H]21` [Simvastatin]: the serum levels entry in series [1] was “about 100 micromolar”. In addition, the “reduction of tumor size” value in the series with MDA-231 cells [2] is listed as “about 40%”.
In the case of `COC(=O)[C@H](CCSC)NC(=O)c1ccc(NC[C@@H](N)CS)cc1-c1ccccc1` [FTI-277], the “concentrations that block farnesylation via inhibition of farnesyltransferase” value at farnesyltransferase was “nanomolar”. Further, the “effect on growth of MDA-231 cells in 3D culture” value (“effect on growth” for short) in the series with MDA-231 cells [3] (1 uM, added Day 1, 8 days) was “only a mild effect”. For the same molecule, the “effect on squalene synthesis” value with squalene synthesis is listed as “no effect”. In [4], the “effect on geranylgeranyl transferase” value was “no effect”.
Consider `C[C@@](O)(CCO)CC(=O)O` (racemic) [mevalonic acid], for which the “rescue of the phenotypic effects of statin treatment in 3D culture” value is “blocked many of the phenotypic effects of statins” in the series on MDA-231 cells [3] (MDA-231 treated with Simvastatin 1 μM, supplemented) and “blocked many of the phenotypic effects of statins” in the series with MDA-468 cells (MDA-468 treated with Simvastatin 1 μM, supplemented). Besides, the “effect on phenotypic reversion caused by mutant p53 knockdown” value in the series with MDA-468.shp53 cells is “dramatically inhibit”. Also, the “luminal clearance in MCF10A cells” value in the series on MCF10A cells is “sufficient to block luminal clearance”.
`CC[C@H](C)C(=O)O[C@H]1CCC=C2C=C[C@H](C)[C@H](CC[C@@H]3C[C@@H](O)CC(=O)O3)[C@H]21` [Mevastatin]: the “3D morphology of MDA-231 cells” value in the series with MDA-231 cells [3] (1 μM, added Day 4, 13 days) is on record as “profoundly affects”. Also, the “3D morphology of MDA-468 cells” value in the series on MDA-468 cells (1 μM, added Day 4, 13 days) is reported as “profoundly affects”.
Turning to `CC(C)C[C@H](NC(=O)c1ccc(NCc2cnc[nH]2)cc1-c1cccc2ccccc12)C(=O)O` [GTI-2133], in the series with MDA-231 cells [3] (1 uM, added Day 1, 8 days), the “effect on growth” value is on record as “profound impact” and the “effect on invasive morphology of MDA-231 cells in 3D culture” value was “profound impact”.
Take `F/C(COc1ccc2c(c1)[nH]c1ccccc12)=C1/CN2CCC1CC2` [YM-53601]: the “effect on growth” value with MDA-231 cells [3] (1 uM, added Day 1, 8 days) is on record as “only a mild effect”. Moreover, the “killing of cancer cells in 3D culture” value in the series on MDA-231 cells [3] (10 uM) is “killed all the cancer cells”. Moreover, the “concentrations that inhibit squalene synthase” value at squalene synthase was “submicromolar”.
For the molecule `CC(C)=CCC/C(C)=C/CC/C(C)=C/CC/C(C)=C/COP(=O)(O)OP(=O)(O)O` [Geranylgeranyl pyrophosphate], in the series on MDA-231 cells [3] (MDA-231 with Simvastatin 1 μM, 25 μM GGPP, 8 days), the “rescue of the morphological effects of HMG-CoA reductase inhibition” value was “partially rescue”. The “rescue of the morphological effects of mutant p53 depletion” value with MDA-231.shp53 cells is “partially rescue”.
Regarding `O=C(O)CC(O)(CF)CCO` (stereo not drawn) [6-fluoromevalonate, 6-Fluoromevalonate], the “phenotypic effects in 3D culture compared with HMG-CoA reductase inhibition by statins” value is on record as “remarkably similar phenotypic effects” in the series on MDA-231 cells [3] (MDA-231, 200 μM, added Day 1, 8 days) and “remarkably similar phenotypic effects” with MDA-468 cells (MDA-468, 200 μM, added Day 1, 8 days).
